Experimental data from ChEMBL document CHEMBL5335823, “Synthesis, biological evaluation, and stability studies of raloxifene mono- and bis-sulfamates as dual-targeting agents” (Bioorg Med Chem, 2024).
Each block holds one compound with its values, some of them ahead of it.

Experiments:
Steryl-sulfatase [1] = target: T1, Steryl-sulfatase (Homo sapiens, UniProt P08842); test: Inhibition of STS in human JEG-3 cell lysates assessed as inhibition of estrone E1 formation using [3H]estrone sulfate as substrate incubated for 1 hr in presence of E1S by scintillation spectrometry; assay type: subcellular
T1 sequence (P08842 whole entry): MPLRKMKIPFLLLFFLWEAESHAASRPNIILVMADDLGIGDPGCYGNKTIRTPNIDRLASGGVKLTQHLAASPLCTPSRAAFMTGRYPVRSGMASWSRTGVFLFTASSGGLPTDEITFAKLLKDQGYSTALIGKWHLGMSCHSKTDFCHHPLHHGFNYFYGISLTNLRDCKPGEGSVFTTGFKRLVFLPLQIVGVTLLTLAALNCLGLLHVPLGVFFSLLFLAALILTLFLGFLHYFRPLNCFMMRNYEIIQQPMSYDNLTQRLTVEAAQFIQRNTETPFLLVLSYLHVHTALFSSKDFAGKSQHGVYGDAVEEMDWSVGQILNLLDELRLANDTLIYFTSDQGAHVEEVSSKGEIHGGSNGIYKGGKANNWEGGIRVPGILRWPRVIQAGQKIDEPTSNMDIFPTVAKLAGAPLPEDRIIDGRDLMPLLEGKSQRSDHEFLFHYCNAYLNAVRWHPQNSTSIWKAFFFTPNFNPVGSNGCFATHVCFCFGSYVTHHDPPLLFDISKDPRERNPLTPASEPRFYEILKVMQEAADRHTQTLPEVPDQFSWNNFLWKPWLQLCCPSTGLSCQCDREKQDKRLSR

[2] = target: T2, Estrogen receptor (Homo sapiens) (UniProt P03372); test: Antagonist activity at ER-alpha (unknown origin) at 10 microM by ER-alpha coactivator assay
T2 sequence (whole entry): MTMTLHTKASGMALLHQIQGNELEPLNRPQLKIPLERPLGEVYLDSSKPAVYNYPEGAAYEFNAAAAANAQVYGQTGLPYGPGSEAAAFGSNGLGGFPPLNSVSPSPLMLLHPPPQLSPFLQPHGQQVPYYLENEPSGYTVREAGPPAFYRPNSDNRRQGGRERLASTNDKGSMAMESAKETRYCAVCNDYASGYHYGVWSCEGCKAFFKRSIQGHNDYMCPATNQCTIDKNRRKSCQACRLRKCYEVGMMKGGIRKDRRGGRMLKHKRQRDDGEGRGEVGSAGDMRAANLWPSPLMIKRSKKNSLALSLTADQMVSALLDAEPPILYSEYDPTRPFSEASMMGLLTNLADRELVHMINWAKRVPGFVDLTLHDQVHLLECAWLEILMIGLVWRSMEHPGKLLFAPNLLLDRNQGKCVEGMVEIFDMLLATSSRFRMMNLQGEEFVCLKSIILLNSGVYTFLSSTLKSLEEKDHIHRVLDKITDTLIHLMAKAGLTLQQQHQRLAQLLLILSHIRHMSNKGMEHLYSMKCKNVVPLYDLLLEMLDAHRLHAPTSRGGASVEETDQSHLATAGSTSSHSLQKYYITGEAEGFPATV

Steryl-sulfatase [3] = target: T1, Steryl-sulfatase; test: Inhibition of STS in human JEG-3 cells assessed as inhibition of estrone E1 formation using [3H]estrone sulfate as substrate incubated for 20 hrs in presence of E1S by scintillation spectrometry; assay type: cell-based
T47D [4] = test: Antiproliferative activity against human T47D cells assessed as inhibition of cell growth at 10 uM incubated for 5 days by crystal violet staining based analysis; assay type: functional; details: 120 h, time 5 day
[5] = Stability of the compound in wet DMSO-d6 assessed as parent compound remaining at 8 umol measured at room temperature after 45 days by 1HNMR spectroscopy; assay type: physicochemical; details: at 8 µmol, time 45 day, read-out: Stability
T47D [6] = test: Antiproliferative activity against human T47D cells assessed as inhibition of cell growth incubated for 5 days by crystal violet staining based analysis; assay type: functional; details: 120 h, time 5 day
[7] = Stability of the compound in wet DMSO-d6 assessed as parent compound remaining at 6.2 umol measured at room temperature after 45 days by 1HNMR spectroscopy; assay type: physicochemical; details: at 6.2 µmol, time 45 day, read-out: Stability
[8] = Stability of the compound in wet DMSO-d6 assessed as parent compound remaining at 6.2 umol measured at room temperature after 6 days by 1HNMR spectroscopy; assay type: physicochemical; details: at 6.2 µmol, time 6 day, read-out: Stability
OVCAR-4 = test: Antiproliferative activity against human OVCAR-4 cells assessed as inhibition of cell growth measured after 72 hrs by CellTiter-Glo assay; assay type: functional
SN12C = test: Antiproliferative activity against human SN12C cells assessed as inhibition of cell growth measured after 72 hrs by CellTiter-Glo assay; assay type: functional
CCRF-CEM = test: Antiproliferative activity against human CCRF-CEM cells assessed as inhibition of cell growth measured after 72 hrs by CellTiter-Glo assay; assay type: functional
HOP-62 = test: Antiproliferative activity against human HOP-62 cells assessed as inhibition of cell growth measured after 72 hrs by CellTiter-Glo assay; assay type: functional
[9] = Stability of the compound in wet DMSO-d6 assessed as parent compound remaining at 7.9 umol measured at room temperature after 6 days by 1HNMR spectroscopy; assay type: physicochemical; details: at 7.9 µmol, time 6 day, read-out: Stability
[10] = Stability of the compound in wet DMSO-d6 assessed as parent compound remaining at 7.9 umol measured at room temperature after 30 days by 1HNMR spectroscopy; assay type: physicochemical; details: at 7.9 µmol, time 30 day, read-out: Stability
HCT-116 = test: Antiproliferative activity against human HCT-116 cells assessed as inhibition of cell growth measured after 72 hrs by CellTiter-Glo assay; assay type: functional
SF-539 = test: Antiproliferative activity against human SF-539 cells assessed as inhibition of cell growth measured after 72 hrs by CellTiter-Glo assay; assay type: functional
MDA-MB-231 = test: Antiproliferative activity against human MDA-MB-231 cells assessed as inhibition of cell growth measured after 72 hrs by CellTiter-Glo assay; assay type: functional
DU-145 = test: Antiproliferative activity against human DU-145 cells assessed as inhibition of cell growth measured after 72 hrs by CellTiter-Glo assay; assay type: functional
UACC-62 = test: Antiproliferative activity against human UACC-62 cells assessed as inhibition of cell growth measured after 72 hrs by CellTiter-Glo assay; assay type: functional

Compound: Cl.O=C(c1ccc(OCCN2CCCCC2)cc1)c1c(-c2ccc(O)cc2)sc2cc(O)ccc12 [RALOXIFENE HYDROCHLORIDE]
IC50 (Steryl-sulfatase [1]; jeg-3): Not Active

Compound: O=C(c1ccc(OCCN2CCCCC2)cc1)c1c(-c2ccc(O)cc2)sc2cc(O)ccc12 [RALOXIFENE]
IC50 (Steryl-sulfatase [1]; jeg-3): Not Active | IC50 (Steryl-sulfatase [3]; jeg-3): Not Active | inhibition at 10 µM (T47D [4]): 78% | GI50 (T47D [6]): 6.89 µM

Second part, led by results:

inhibition [2]: 27% | IC50 (Steryl-sulfatase [1]; read-out: IC50): 3.4 µM | IC50 (Steryl-sulfatase [3]; read-out: IC50): 0.607 µM | remaining at 1080 h, 8 umol [5]: 12%
Compound: NS(=O)(=O)Oc1ccc(-c2sc3cc(O)ccc3c2C(=O)c2ccc(OCCN3CCCCC3)cc2)cc1
inhibition at 10 µM (T47D [4]): 12%

IC50 (Steryl-sulfatase [1]; read-out: IC50): 2.08 µM | remaining at 1080 h, 6.2 umol [7]: 18% | IC50 (Steryl-sulfatase [3]; read-out: IC50): 0.332 µM | remaining at 144 h, 6.2 umol [8]: 70%
Compound: NS(=O)(=O)Oc1ccc2c(C(=O)c3ccc(OCCN4CCCCC4)cc3)c(-c3ccc(O)cc3)sc2c1

GI50 (OVCAR-4): 10.6 µM | IC50 (Steryl-sulfatase [1]; read-out: IC50): 0.0966 µM | GI50 (CCRF-CEM): 9.02 µM | remaining at 144 h, 7.9 umol [9]: 27% | IC50 (Steryl-sulfatase [3]; read-out: IC50): 0.0122 µM | remaining at 720 h, 7.9 umol [10]: 0% | GI50 (HCT-116): 14.6 µM | GI50 (T47D [6]): 7.12 µM | GI50 (MDA-MB-231): 1.34 µM | GI50 (DU-145): 16 µM
Compound: NS(=O)(=O)Oc1ccc(-c2sc3cc(OS(N)(=O)=O)ccc3c2C(=O)c2ccc(OCCN3CCCCC3)cc2)cc1
GI50 (SN12C): 1.61 µM | GI50 (HOP-62): 14.8 µM | GI50 (SF-539): 13.1 µM | GI50 (UACC-62): 1.47 µM
